These results are taken from patent US10912767B2, “Anthracycline prodrugs and methods of making and using the same” (THE REGENTS OF THE UNIVERSITY OF COLORADO, priority 2015, dated 2021).

The structures appear in SMILES notation. Read-outs that look alike come from different tables or passages of the source. Non-standard residues stand in square brackets, D forms with d. Residues, ends and D or L forms follow the SMILES beside them. *: point of attachment. X1 = COc1cc(C(C)OC(=O)N2CO[C@@H]3[C@H](C)OC(OC4CC(O)(C(=O)CO)Cc5c(O)c6c(c(O)c54)C(=O)c4c(OC)cccc4C6=O)C[C@@H]32)c([N+](=O)[O-])cc1OCC(=O)NCCOCCOCCOCCn1nnc2c1-c1ccccc1CN(C(=O)CCNC(=O)CCN1C(=O)CC(*)C1=O)c1ccccc1-2; Mpa = O=C(O)CCS Some results are limits rather than exact numbers.

Assay [1] is described as follows: Photolysis timecourses, near UV blacklight 350 nm, HPLC. Type of assay: physicochemical. To be noted: for k in ACN: H2O, relative rate constant for photocleavage / k in PBS, relative rate constant for photocleavage: 100 μM, near UV 350 nm; for k in ACN: H2O, relative rate constant for photocleavage / k in ACN: H2O, fold over photodoxazolidine: 1:1 acetonitrile:water; for photochemical reaction, fold faster than photodoxazolidine: both solvents. From the text: (§1) In order to investigate the photolysis of the drugs in a system amenable to cell culture use, a custom UV irradiation apparatus was constructed, consisting of 3 small blacklight fluorescent bulbs (Southern New England Ultraviolet Co., λmax=350 nm) set between two ring stands and suspended at a height of 11.5 cm. The bulbs' housing was reflective aluminum so as to direct as much UV irradiation as possible downward toward the plate. Upon installation in sterile cell culture hood, the power of the system was measured at approximately 6-7 mW using a Scientech laser power meter. Prior to experimentation, the hood and irradiation apparatus was sterilized with 254 nm germicidal UV irradiation overnight. Using this setup, 100 μM of 4,5-dimethoxy-2-nitrobenyl alcohol (DMNA), photodoxazolidine R═H, and glucose-PEG-photodoxazoldine were irradiated in individual wells of a 24-well plate. Initially, 50 μL of a DMSO stock was diluted with 950 μL of PBS and aliquots of 50 μL were removed at various times (0-180 min), mixing by pipetting each time. The timepoints were analyzed by HPLC (method 2) and plotted as fractional conversion versus time. […] Therefore, a second experiment was performed in which the PBS was replaced with 1:1 acetonitrile:water. With this system of 5% DMSO/47.5% acetonitrile/47.5% water, no visible precipitation was produced over the course of the reaction.
The measured quantum yield of 0.002 for photodoxazolidine R═H (above) was lower than expected, which raised the possibility that the presence of the anthraquinone ring complex in the prodrugs was inhibiting photocleavage by quenching the activated state. To test whether this, the irradiation kinetics of DMNA (4, 5-dimethoxy-2-nitrobenzyl alcohol) was compared against photodoxazolidine R═H, which contains the DMNA unit as the photoactivating group. Additionally, glucose-PEG-photodoxazoldine was included for comparison; a synthetic precursor to this compound, azido-PEG-photodoxazolidine, is suspected of having a quantum yield of 0.01-0.02, which is 5-10-fold larger than photodoxazolidine. Irradiation was performed in 24-well cell culture dishes using the cell culture irradiation system described above with the soft-glass high-pass filter. […] In both cases, photodoxazolidine was the slowest to produce dox from the irradiation. In line with its quantum yield, glucose-PEG-photodoxazolidine reacted 4-5-fold faster than photodoxazolidine. However, DMNA was by far the fastest to undergo photochemistry in this system, converting to product approximately 30-fold faster than photodoxazolidine.

Assay [2] concerns MDA-MB-231 human breast cancer cells. Put plainly: cells. Type of assay: cell-based. Here is the method: The breast carcinoma line MDA-MB-231 was cultured in Minimum Essential Media (MEM) supplemented with 10% of fetal bovine serum (FBS), 100 units/mL of penicillin and 100 μg/mL of streptomycin, and 1 mM of sodium pyruvate. The cells were incubated at 37° C. in an atmosphere of 95% air and 5% CO2.
The cells were seeded to 96-well plates at a density of 1000 cells/well and allowed to adhere overnight. The prodrugs with various concentrations in MEM were added and the cells were incubated at 37° C. for 24 h. After the media was removed, the cells were washed with PBS two times. The cells in PBS (50 μL) were irradiated for 15 min, followed by incubating at room temperature for 30 min. The PBS was replaced with fresh media and the cells were grown until the no-drug control reached 80% confluency, or 5 days. Cell density was measured by crystal violet staining.
The membrane permeability of the photoactivated prodrugs and their cellular uptake by MDA-MB-231 human breast cancer cells were each monitored by fluorescence microscopy. After the cells were grown with the prodrugs for 24 h, they were washed with PBS two times to remove the prodrugs that remained outside of the cells. The cellular uptake of 10 μM glucose-photodoxazolidine and glucose-PEG-photodoxazolidine was monitored with the fluorescence of the anthraquinone fluorophore. The prodrugs were then activated inside of the cells by black lamp UV irradiation (maximum intensity at 350 nm) for 15 min. […] This drastic change of cytotoxicity presumably arises from membrane permeability of MARCKS-ED peptide and possibly some phototoxicity from longer irradiation time.

Assay [3] has as its system MDA-MB-231 breast cancer cells. Put plainly: Tumor cell growth inhibition, crystal violet (Example 2). The format is cell-based, human. To be noted: Homo sapiens, read-out: IC50.
Description: as §1
The ovarian carcinoma line NCl/ADR-RES (ADR) was grown in high-glucose Dulbecco's Modified Eagle Medium (DMEM) supplemented with 10% fetal bovine serum (FBS), 200 units/mL of penicillin and 200 μg/mL of streptomycin. The breast carcinoma line MDA-MB-231 was cultured in low-glucose DMEM with the same additives. Both lines were maintained in a humidified incubator with 5% CO2/95% air at 37° C. UV irradiations were performed with the apparatus described above.
Growth inhibition experiments were performed by seeding cells into 96-well plates or 24-well plates at densities of 1000-1500 cells per well or 8000 cells per well, respectively, and allowing the cells to adhere overnight. The media was then replaced with a range of aqueous concentrations of the drug in question and allowed to incubate at 37° C. with the cells for a span of time (Inc1) which ranged from 1 min to 48 hours. Irradiation was performed at room temperature with the plate's lid removed and ranged from 1 to 30 min. In some experiments, the drug solution was removed following Inc1 and irradiated in clean media or PBS. Following irradiation, the cells were placed back into the 37° C. incubator for a second period of incubation (Inc2), which varied between 1 min and 24 h, prior to replacement with fresh media. Plates which received no irradiation but identical treatment otherwise were done in parallel. The cells were then grown until the no-drug control wells reached approximately 80% confluence or 5 days, whichever was shorter. […] The cells were fixed with 5% formalin in PBS, stained with crystal violet, washed with tap water, and air-dried. The stain was resolubilized in 50% isopropyl alcohol, 50% H2O containing 2% (w/v) SDS. The staining density was read on a multiwell plate reader at 588-600 nm. Percentage cell density was calculated relative to the irradiated no-drug control wells, plotted as a function of drug concentration, and fit using non-linear least squared analysis with a variable-slope dose response model in GraphPad Prism 5.0 software.
Although the introduction of a long-pass glass filter between the light source and the plate alleviated this effect to a small extent, a maximum irradiation time of 10 min was settled upon. […] Since a media change at that point would remove the cells as well, the re-adherence of the cell population was accomplished by the addition of a large volume (200 μL) of complete media following Inc2, and overnight incubation. Then, a full media change was done to remove the drug. […]

Turning to `COc1cc(CO)c([N+](=O)[O-])cc1OC` [DMNA, 4,5-dimethoxy-2-nitrobenzylalcohol, reference compound], in assay [1], the “k in ACN: H2O, relative rate constant for photocleavage” value came to 0.21 min⁻¹; the “k in PBS, relative rate constant for photocleavage” value is 0.081 min⁻¹; the “k in ACN: H2O, fold over photodoxazolidine” value is reported as “(30)”; the “k in PBS, fold over photodoxazolidine” value is recorded as “(31)”. In addition, the “photochemical reaction, fold faster than photodoxazolidine” value in assay [1] was “approximately 30 fold”.

As for `COc1cc(C(C)OC(=O)N2COC3C(C)OC(OC4CC(O)(C(=O)CO)Cc5c(O)c6c(c(O)c54)C(=O)c4c(OC)cccc4C6=O)CC32)c([N+](=O)[O-])cc1OCC(=O)NCCOCCOCCOCCn1cc(CCC(=O)NC2C(O)OC(CO)C(O)C2O)nn1` (centres unmarked) [Glucose-PEG-photodoxazolidine], the IC50 in assay [2] (Homo sapiens, MDA-MB-231, light +, 24 h incubation, 15 min UV, read-out: IC50) stood at 750 nM. Besides, the half-maximal inhibitory concentration (IC50) in assay [2] (Homo sapiens, MDA-MB-231, light −, 24 h incubation, read-out: IC50) stood at 2400 nM. In assay [1], the “k in ACN: H2O, relative rate constant for photocleavage” value came out at 0.036 min⁻¹; the “k in PBS, relative rate constant for photocleavage” value is 0.011 min⁻¹; the “k in ACN: H2O, fold over photodoxazolidine” value is given as “(5.2)”; the “k in PBS, fold over photodoxazolidine” value is “(4.2)”. The “photochemical reaction, fold faster than photodoxazolidine” value in assay [1] was 4-5 fold. In addition, in assay [3] (10 min, MDA-MB-231, +UV 10 min, near UV 350 nm), the concentration for half-maximal inhibition (IC50) stood at 27 ± 2 nM. In addition, the 50% inhibitory concentration (IC50) in assay [3] (MDA-MB-231, prodrug alone, no UV) was above 10000 nM.

Regarding `COc1cc(C(C)OC(=O)N2COC3C(C)OC(OC4CC(O)(C(=O)CO)Cc5c(O)c6c(c(O)c54)C(=O)c4c(OC)cccc4C6=O)CC32)c([N+](=O)[O-])cc1OCC(=O)NC1C(O)OC(CO)C(O)C1O` (centres unmarked) [Glucose-Phtodoxazolidine], the IC50 in assay [2] (Homo sapiens, MDA-MB-231) is 832 nM; in assay [2] (Homo sapiens, MDA-MB-231, 24 h), 2080 nM.

On to `COc1cc(C(C)OC(=O)N2CO[C@@H]3[C@H](C)OC(OC4CC(O)(C(=O)CO)Cc5c(O)c6c(c(O)c54)C(=O)c4c(OC)cccc4C6=O)C[C@@H]32)c([N+](=O)[O-])cc1OCC(=O)NCCOCCOCCOCCn1nnc2c1-c1ccccc1CN(C(=O)CCNC(=O)CCN1C(=O)CC(SCCC(=O)N[C@@H](CCCCN)C(=O)N[C@@H](CCCCN)C(=O)N[C@@H](CCCCN)C(=O)N[C@@H](CCCCN)C(=O)N[C@@H](CCCCN)C(=O)N[C@@H](CCCNC(=N)N)C(=O)N[C@@H](Cc3ccccc3)C(=O)N[C@@H](CO)C(=O)N[C@@H](Cc3ccccc3)C(=O)N[C@@H](CCCCN)C(=O)N[C@@H](CCCCN)C(=O)N[C@@H](CO)C(=O)N[C@@H](Cc3ccccc3)C(=O)N[C@@H](CCCCN)C(=O)N[C@@H](CC(C)C)C(=O)N[C@@H](CO)C(=O)NCC(=O)N[C@@H](Cc3ccccc3)C(=O)N[C@@H](CO)C(=O)N[C@@H](Cc3ccccc3)C(=O)N[C@@H](CCCCN)C(=O)N[C@@H](CCCCN)C(=O)N[C@@H](CC(N)=O)C(=O)N[C@@H](CCCCN)C(=O)N[C@@H](CCCCN)C(N)=O)C1=O)c1ccccc1-2` (some centres unmarked) [MARCKS-PEG-Photodoxazolidine] ([Mpa](X1)KKKKKRFSFKKSFKLSGFSFKKNKK-NH2), for which the IC50 in assay [2] (light −, 24 h incubation, read-out: IC50) was 1300 nM.
